From paper doi:10.1101/2025.02.15.638425v1, “Synthesis and Biological Evaluation of Nipecotic Acid Derivatives with Terminally Double-Substituted Allenic Spacers as mGAT4 Inhibitors” (biorxiv, 2025) come the findings set out here.

Test [1] concerns the target T1, mGAT1 (Mus musculus, UniProt P31648).
T1 construct: gene Slc6a1; full-length transporter stably expressed in HEK293 cells
Kind of test: [3H]GABA uptake, intact HEK293 cells. The class given is cell-based. The source says:
[3H]GABA uptake, intact HEK293 cells on mGAT1

Test [2] concerns the target T1, mGAT1. Kind of test: competitive MS Binding Assay, NO711 marker, HEK293 membranes. An excerpt: competitive MS Binding Assay, NO711 marker, HEK293 membranes on mGAT1
The next test addresses T2, mGAT2 (Mus musculus, UniProt P31651).
T2 construct: gene Slc6a12; full-length transporter stably expressed in HEK293 cells; mouse nomenclature, equivalent of hBGT-1
T2 sequence (P31651 1-614): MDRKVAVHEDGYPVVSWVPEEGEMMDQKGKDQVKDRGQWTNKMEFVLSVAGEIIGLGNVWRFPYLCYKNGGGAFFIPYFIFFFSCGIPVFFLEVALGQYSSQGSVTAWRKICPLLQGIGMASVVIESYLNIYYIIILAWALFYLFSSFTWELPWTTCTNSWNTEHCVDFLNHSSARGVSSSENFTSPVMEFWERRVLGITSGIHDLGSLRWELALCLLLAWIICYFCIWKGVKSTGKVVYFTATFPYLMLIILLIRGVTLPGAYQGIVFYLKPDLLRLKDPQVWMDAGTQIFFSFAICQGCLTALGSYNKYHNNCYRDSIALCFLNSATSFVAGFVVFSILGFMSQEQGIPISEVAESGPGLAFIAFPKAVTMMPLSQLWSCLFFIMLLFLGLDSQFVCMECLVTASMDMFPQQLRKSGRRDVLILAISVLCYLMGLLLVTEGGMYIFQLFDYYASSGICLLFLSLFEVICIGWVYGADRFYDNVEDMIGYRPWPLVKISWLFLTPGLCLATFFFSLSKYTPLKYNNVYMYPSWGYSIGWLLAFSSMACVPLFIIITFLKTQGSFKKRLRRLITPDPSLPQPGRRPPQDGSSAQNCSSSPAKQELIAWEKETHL
Kind of test: [3H]GABA uptake, intact HEK293 cells. The format is cell-based. The source says:
[3H]GABA uptake, intact HEK293 cells on mGAT2

The target in a further test is T3, mGAT3 (Mus musculus, UniProt P31649).
T3 construct: gene Slc6a13; full-length transporter stably expressed in HEK293 cells; mouse nomenclature, equivalent of hGAT-2
T3 sequence (P31649 1-602): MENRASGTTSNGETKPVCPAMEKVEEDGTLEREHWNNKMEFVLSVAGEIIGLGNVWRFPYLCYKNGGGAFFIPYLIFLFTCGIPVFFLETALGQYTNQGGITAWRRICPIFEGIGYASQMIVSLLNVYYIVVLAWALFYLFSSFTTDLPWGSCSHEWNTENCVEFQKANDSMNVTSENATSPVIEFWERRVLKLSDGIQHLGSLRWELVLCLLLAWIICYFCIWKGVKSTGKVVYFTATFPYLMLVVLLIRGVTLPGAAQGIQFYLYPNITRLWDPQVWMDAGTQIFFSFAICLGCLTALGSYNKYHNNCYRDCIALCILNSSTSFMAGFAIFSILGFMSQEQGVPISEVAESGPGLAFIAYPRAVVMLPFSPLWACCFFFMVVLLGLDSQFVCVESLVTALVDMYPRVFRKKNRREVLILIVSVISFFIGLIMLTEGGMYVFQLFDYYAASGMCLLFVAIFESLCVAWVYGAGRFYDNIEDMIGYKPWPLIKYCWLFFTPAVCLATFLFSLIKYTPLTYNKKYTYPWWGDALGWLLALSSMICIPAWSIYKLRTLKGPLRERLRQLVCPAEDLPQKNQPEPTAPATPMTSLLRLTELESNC
Kind of test: [3H]GABA uptake, intact HEK293 cells. The format is cell-based. The source says:
[3H]GABA uptake, intact HEK293 cells on mGAT3

Test [3] deals with T4, mGAT4 (Mus musculus, UniProt P31650).
T4 construct: gene Slc6a11; full-length transporter stably expressed in HEK293 cells
T4 sequence (P31650 1-627): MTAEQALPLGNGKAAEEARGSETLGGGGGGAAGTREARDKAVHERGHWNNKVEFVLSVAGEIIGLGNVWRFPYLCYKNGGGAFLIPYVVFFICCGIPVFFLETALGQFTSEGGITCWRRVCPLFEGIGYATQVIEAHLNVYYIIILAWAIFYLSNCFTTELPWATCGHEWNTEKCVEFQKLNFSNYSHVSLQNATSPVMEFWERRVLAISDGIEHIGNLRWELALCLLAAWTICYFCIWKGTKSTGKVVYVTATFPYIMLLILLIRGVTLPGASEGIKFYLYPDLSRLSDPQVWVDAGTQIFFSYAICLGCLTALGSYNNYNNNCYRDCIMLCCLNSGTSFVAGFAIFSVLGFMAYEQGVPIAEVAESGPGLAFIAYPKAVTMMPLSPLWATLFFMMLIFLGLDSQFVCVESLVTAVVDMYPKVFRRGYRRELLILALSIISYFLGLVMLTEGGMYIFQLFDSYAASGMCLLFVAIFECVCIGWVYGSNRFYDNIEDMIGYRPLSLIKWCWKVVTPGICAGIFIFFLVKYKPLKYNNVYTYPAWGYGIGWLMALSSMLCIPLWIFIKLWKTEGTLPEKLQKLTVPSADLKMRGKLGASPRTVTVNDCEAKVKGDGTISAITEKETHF
In words: [3H]GABA uptake, intact HEK293 cells. The format is cell-based.

The next test has as its target T5, hGAT-3 (Homo sapiens, UniProt P48066).
T5 construct: gene SLC6A11; full-length transporter stably expressed in COS-7 cells
T5 sequence (P48066 1-632): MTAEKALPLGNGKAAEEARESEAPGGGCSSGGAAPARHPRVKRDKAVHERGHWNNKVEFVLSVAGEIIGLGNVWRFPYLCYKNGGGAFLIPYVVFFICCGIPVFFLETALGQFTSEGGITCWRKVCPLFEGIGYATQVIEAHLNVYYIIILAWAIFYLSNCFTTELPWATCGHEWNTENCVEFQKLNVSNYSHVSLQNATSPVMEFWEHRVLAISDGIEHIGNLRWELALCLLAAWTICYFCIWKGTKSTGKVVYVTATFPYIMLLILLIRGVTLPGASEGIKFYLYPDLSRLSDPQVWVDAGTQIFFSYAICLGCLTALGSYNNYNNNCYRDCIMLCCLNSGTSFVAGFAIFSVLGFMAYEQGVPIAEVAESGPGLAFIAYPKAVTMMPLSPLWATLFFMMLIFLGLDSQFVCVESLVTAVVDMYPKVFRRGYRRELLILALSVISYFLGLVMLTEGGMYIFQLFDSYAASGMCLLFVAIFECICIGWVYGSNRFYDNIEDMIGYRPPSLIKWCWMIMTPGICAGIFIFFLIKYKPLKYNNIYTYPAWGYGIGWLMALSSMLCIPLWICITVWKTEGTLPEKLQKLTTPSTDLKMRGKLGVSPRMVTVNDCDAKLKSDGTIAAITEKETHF
In words: MS Transport Assay (GABA transport), COS-7 cells. The class given is cell-based. An excerpt: MS Transport Assay (GABA transport), COS-7 cells on hGAT-3

For test [4], the target named is T4, mGAT4. In words: [3H]GABA uptake, intact HEK293 cells. The class given is cell-based. An excerpt:
[3H]GABA uptake, intact HEK293 cells on mGAT4
This is another data set of the same source.

As to `O=C(O)C1CCCN(CC=C=C(c2ccccc2)c2ccc(-c3ccccc3)cc2)C1` (racemic) [8f, rac-{(Ra)-1-[4-(1,1’-biphenyl-4-yl)-4-phenylbuta-2,3-dien-1-yl]-(3R)-piperidine-3-carboxylic acid} [rac-(3R,Ra)-8f] and rac-{(Sa)-1-[4-(1,1’-biphenyl-4-yl)-4-phenylbuta-2,3-dien-1-yl]-(3R)-piperidine-3-carboxylic acid}], the IC50 (in general, the concentration at which inhibition is half-maximal) is 5.01 µM against mGAT1 [1]; 6.46 µM on mGAT2; 8.32 µM on mGAT3; 4.47 µM on mGAT4 [3]; 1.66 µM on hGAT-3. The Ki – broadly, the dissociation constant of the complex between target and ligand, obtained from inhibition or displacement – on mGAT1 [2] was 1.23 µM.

Compound `COc1ccc2c(c1)CCCC2=C=CCN1CCCC(C(=O)O)C1` (racemic) [8g, rac-[(Ra)-1-{3-[6-methoxy-3,4-dihydronaphthalen-1(2H)-ylidene]allyl}-(3R)-piperidine-3-carboxylic acid] [rac-(3R,Ra)-8g] and rac-[(Sa)-1-{3-[6-methoxy-3,4-dihydronaphthalen-1(2H)-ylidene]allyl}-(3R)-piperidine-3-carboxylic acid]] had an IC50 on mGAT1 [1] of 13.5 µM. The remaining activity (as a rule, the activity still measured, relative to the control) at 100 µM at mGAT4 [4] was 70%. Also, affinity on mGAT1 [2] was put at a Ki of 58.9 µM.

In the case of `O=C(O)C1CCCN(CCC=C=C(c2ccccc2)c2ccc(-c3ccccc3)cc2)C1` (racemic) [11f, rac-{(Ra)-1-[5-(1,1’-biphenyl-4-yl)-5-phenylpenta-3,4-dien-1-yl]-(3R)-piperidine-3-carboxylic acid} [rac-(3R,Ra)-11f] and rac-{(Sa)-1-[5-(1,1’-biphenyl-4-yl)-5-phenylpenta-3,4-dien-1-yl]-(3R)-piperidine-3-carboxylic acid}], the IC50 on mGAT1 [1] is 4.68 µM; against mGAT2, 12.3 µM; against mGAT3, 10.2 µM; on mGAT4 [3] it was 12.6 µM; against hGAT-3 it was 6.17 µM. The same compound showed a Ki at mGAT1 [2] of 0.891 µM.

The compound `O=C(O)C1CCCN(CC=C=C(c2ccccc2)c2ccccc2)C1` (racemic) [rac-8a, rac-[1-(4,4-Diphenylbuta-2,3-dien-1-yl)piperidine-3-carboxylic acid]] showed an IC50 at mGAT1 [1] of 7.41 µM. At mGAT4 [4], this compound came in with a remaining activity at 100 µM of 82%. This compound gave a Ki on mGAT1 [2] of 1.17 µM.

For `Cc1ccc(C(=C=CCN2CCCC(C(=O)O)C2)c2ccc(C)cc2)cc1` (racemic) [rac-8b, rac-[1-(4,4-Di-p-tolylbuta-2,3-dien-1-yl)piperidine-3-carboxylic acid]], the half-maximal inhibitory concentration (IC50) against mGAT1 [1] is 6.46 µM; at mGAT2 it was 27.5 µM; against mGAT3 it was 10.5 µM; on mGAT4 [3], 11.5 µM. This compound also had a Ki at mGAT1 [2] of 1.38 µM.

As to `O=C(O)C1CCCN(CC=C=C(c2ccc(F)cc2)c2ccc(F)cc2)C1` (racemic) [rac-8c, rac-{1-[4,4-Bis(4-fluorophenyl)buta-2,3-dien-1-yl]piperidine-3-carboxylic acid}], the IC50 on mGAT1 [1] was 1.07 µM; at mGAT2, 79.4 µM; on mGAT3, 69.2 µM; against mGAT4 [3] it was 30.2 µM. On mGAT1 [2], this compound showed a Ki of 0.562 µM.

As to `O=C(O)C1CCCN(CC=C=C(c2ccc(Cl)cc2)c2ccc(Cl)cc2)C1` (racemic) [rac-8d], the IC50 was 0.372 µM against mGAT1 [1]; 7.59 µM on mGAT2; 2.95 µM against mGAT3; 0.832 µM on mGAT4 [3]; 0.447 µM against hGAT-3. In addition, the affinity on mGAT1 [2] corresponds to a Ki of 0.155 µM.

Take `Cc1ccc(C(=C=CCCN2CCCC(C(=O)O)C2)c2ccc(C)cc2)cc1` (racemic) [rac-11b, rac-[1-(5,5-Di-p-tolylpenta-3,4-dien-1-yl)piperidine-3-carboxylic acid]]: the IC50 against mGAT1 [1] was 14.1 µM; on mGAT2, 81.3 µM; at mGAT3, 58.9 µM; on mGAT4 [3], 83.2 µM. On mGAT1 [2], this compound had a Ki of 1.58 µM.

For the compound `O=C(O)C1CCCN(CCC=C=C(c2ccc(Cl)cc2)c2ccc(Cl)cc2)C1` (racemic) [rac-11d, rac-{1-[5,5-Bis(4-chlorophenyl)penta-3,4-dien-1-yl]piperidine-3-carboxylic acid}], the IC50 at mGAT1 [1] was 1.91 µM; on mGAT2, 12 µM; on mGAT3, 28.2 µM; against mGAT4 [3], 17 µM. The compound further gave a Ki on mGAT1 [2] of 0.631 µM.

With `O=C(O)[C@@H]1CCCN(CC=C=C(c2ccc(Cl)cc2)c2ccc(Cl)cc2)C1` [(R)-8d], the IC50 was 0.155 µM at mGAT1 [1]; 15.8 µM at mGAT2; 4.17 µM on mGAT3; 2 µM at mGAT4 [3]; 2.4 µM on hGAT-3. At mGAT1 [2], the Ki is 0.102 µM.

As to `O=C(O)[C@H]1CCCN(CC=C=C(c2ccc(Cl)cc2)c2ccc(Cl)cc2)C1` [(S)-8d, (S)-1-[4,4-bis(4-chlorophenyl)buta-2,3-dien-1-yl]piperidine-3-carboxylic acid], the IC50 against mGAT1 [1] is 1.35 µM; against mGAT2, 4.07 µM; against mGAT3 it was 1.1 µM; against mGAT4 [3] it was 0.257 µM; at hGAT-3 it was 0.324 µM. The Ki on mGAT1 [2] was 2.51 µM.
